Assay results published in ChEMBL document CHEMBL1641465, “2,4-Diaminopyrimidine inhibitors of c-Met kinase bearing benzoxazepine anilines” (Bioorg Med Chem Lett, 2011).

Tests used:
[1] = Half life in rat at 1 mg/kg, iv; type: ADME, organism-based; parameters: dose 1 mg/kg, route intravenous; conditions: in vivo
[2] = AUC (0 to infinity) in rat at 5 mg/kg, po; type: ADME, organism-based; parameters: time infinity, dose 5 mg/kg, route oral; conditions: plasma
[3] = Oral bioavailability in rat at 5 mg/kg; type: ADME, organism-based; conditions: in vivo
[4] = Clearance in rat at 1 mg/kg, iv; type: ADME, organism-based; parameters: dose 1 mg/kg, route intravenous; conditions: in vivo
[5] = Drug level in tumor of human GTL16 cells xenografted in mouse assessed as tumor regression at 100 mg/kg, po qd for 5 days 2 to 10 hrs after last dose; type: ADME, organism-based, Neoplasm; parameters: dose 100 mg/kg, route oral; conditions: in vivo
[6] = AUC (0 to infinity) in rat at 1 mg/kg, iv; type: ADME, organism-based; parameters: time infinity, dose 1 mg/kg, route intravenous; conditions: plasma
[7] = Drug level in tumor of human GTL16 cells xenografted in mouse assessed as tumor regression at 100 mg/kg, po qd for 5 days 10 hrs after last dose; type: ADME, organism-based, Neoplasm; parameters: dose 100 mg/kg, route oral; conditions: read-out: Drug uptake

half-life [1] [min]	AUC(0-inf) [2] [ng·h/mL]	bioavailability [3] [%]	clearance [4] [mL/min/kg]	Drug uptake [5] [ng/g]	AUC(0-inf) [6] [ng·h/mL]	concentration at 10 h [7] [ng/g]	Structure (SMILES)
72	913	15	15.3	125	1220	–	CCOC(=O)N1CCCOc2cc(Nc3ncc(Cl)c(Nc4c(F)cccc4C(=O)NC)n3)ccc21
–	< 100	–	–	–	–	–	CCN1CCCOc2cc(Nc3ncc(Cl)c(Nc4c(F)cccc4C(=O)NC)n3)ccc21
–	< 100	–	–	–	–	–	CNC(=O)c1cccc(F)c1Nc1nc(Nc2ccc3c(c2)OCCCN3CCN2CCCC2)ncc1Cl
18	–	–	34	–	–	> 200	CNC(=O)c1cccc(F)c1Nc1nc(Nc2ccc3c(c2)OCCCN3)ncc1Cl
